According to paper doi:10.1101/2024.08.25.609621 (bioRxiv, 2024):
Converted amounts (≈) assume the structure as drawn. “And” between values parts separate entries of the source, which are not always exact repeats. Equal entries are not always repeated. Where two headings read alike, the source gives them in different places.

Key:
Microsomal stability = assay type: in vitro ADME, mouse; settings: for half-life at 1 µM / microsomal CLint at 1 µM: pH 7.4
Method: The assay was carried out in 96-well plates at 37°C. Reaction mixtures (25 μl) contained a final concentration of 1 μM compound, 0.5 mg/ml liver microsomes protein, and 1 mM NADPH and/or 1 mM UDPGA (with alamethicin) in 100 mM potassium phosphate (pH 7.4) with 3 mM MgCl2. After 0, 15, 30, and 60 minutes, 150 μl of quench solution (100% acetonitrile with 0.1% formic acid) with internal standard was transferred to each well. Reactions containing the same components except the NADPH were prepared as the negative control. Plates were sealed, vortexed, and centrifuged at 4°C for 15 minutes at 4000 rpm.
The extent of metabolism was calculated as the disappearance of compounds, compared to the 0-min time incubation.

Kinetic solubility = settings: pH 7.4, aqueous buffer, kinetic from dmso stock
in vitro = settings: human; for Papp A→B at 1 h / Papp B→A at 1 h: Caco-2
Method: (§1) Caco-2 cell plates were obtained commercially and were maintained for 21 days at 37°C with 5% CO2. Cells were washed with Hank’s Balanced Salt Solution (HBSS) with 5 mM HEPES for 30 minutes before starting the experiment. Test compound solutions are prepared by diluting DMSO stock into HBSS buffer, resulting in a final DMSO concentration of 0.1%. Prior to the assay, cell monolayer integrity was verified by […] electrical resistance (TEER) to ensure that wells have resistance above the acceptance cut-off (1 kΩ). Transport experiments were initiated by adding test compounds to the apical (75 μl) or basal (250 μl) side. Transport plates were incubated at 37°C in a humidified incubator with 5% CO2. Samples were taken from the donor and acceptor compartments after one hour and analyzed by liquid chromatography with tandem mass spectrometry (LC/MS/MS) using an AB Sciex API 4000 instrument, coupled to a Shimadzu LC-20AD LC Pump system. Samples were separated using a Waters Atlantis T3 dC18 reverse phase HPLC column (20 mm × 2.1 mm) at a flow rate of 0.5 ml/min. The mobile phase consisted of 0.1% formic acid in acetonitrile (solvent A) and 0.1% formic acid in water (solvent B).
(§2) Apparent permeability (Papp) values were calculated using the following equation: Papp=(dQ/dt)/A/C0 where dQ/dt is the initial rate of compound transport across the cell monolayer, A is the surface area of the filter membrane, and C0 is the initial concentration of the test compound, calculated for each direction using a four-point calibration curve by LC/MS/MS.
(§3) Net flux ratio between the two directional transports was calculated by the following equation: Ratio=PappB-A/PappA-B where PappB-A and PappA-B represent the apparent permeability of compounds from the basal-to-apical and apical-to-basal side of the cellular monolayer, respectively. Recovery was calculated based on the compound concentration at the end of the experiment, compared to that at the beginning of the experiment, adjusted for volumes.

Caco-2 cells = test: in vitro
Method: as §1, §2, §3

[1] = molecular target: SARS-CoV-2 NSP3 macrodomain (Mac1) (Severe acute respiratory syndrome coronavirus 2, UniProt P0DTD1); test: biochemical; assay type: binding
[2] = molecular target: SARS-CoV-2 NSP3 macrodomain (Mac1), P43 crystal form (Severe acute respiratory syndrome coronavirus 2, UniProt P0DTD1); assay type: binding; settings: for 1-BDC: PanDDA background density correction; for Total number of conformations: ligand conformations modeled in Mac1 crystal structure; for 2*(1-BDC) (%): occupancy estimate from PanDDA 1-BDC
[3] = molecular target: T1, human macrodomain MacroD2 (Homo sapiens, UniProt A1Z1Q3); test: HTRF peptide displacement assay, MacroD2; assay type: binding; settings: for IC50: dose-response; for binding to the human macrodomain MacroD2: in words
T1 sequence (A1Z1Q3 with tags, fused parts or gaps): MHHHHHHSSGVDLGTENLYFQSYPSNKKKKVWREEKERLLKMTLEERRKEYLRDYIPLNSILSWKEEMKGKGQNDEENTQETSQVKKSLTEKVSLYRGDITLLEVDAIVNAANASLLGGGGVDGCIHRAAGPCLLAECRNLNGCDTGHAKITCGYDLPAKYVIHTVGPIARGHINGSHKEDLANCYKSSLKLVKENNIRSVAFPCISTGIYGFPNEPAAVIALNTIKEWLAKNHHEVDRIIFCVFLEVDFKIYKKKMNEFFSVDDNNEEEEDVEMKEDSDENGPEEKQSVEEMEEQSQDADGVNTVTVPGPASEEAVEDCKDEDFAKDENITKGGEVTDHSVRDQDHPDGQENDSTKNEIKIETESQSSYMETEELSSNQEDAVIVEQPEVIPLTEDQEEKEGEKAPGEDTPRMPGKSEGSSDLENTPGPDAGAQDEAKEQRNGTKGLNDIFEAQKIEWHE

human macrodomain Targ1 = molecular target: T2, human macrodomain Targ1 (Homo sapiens, UniProt Q9Y530); test: HTRF peptide displacement assay, Targ1; assay type: binding; settings: for IC50: dose-response; for binding to the human macrodomain Targ1: in words
T2 sequence (Q9Y530 with tags, fused parts or gaps): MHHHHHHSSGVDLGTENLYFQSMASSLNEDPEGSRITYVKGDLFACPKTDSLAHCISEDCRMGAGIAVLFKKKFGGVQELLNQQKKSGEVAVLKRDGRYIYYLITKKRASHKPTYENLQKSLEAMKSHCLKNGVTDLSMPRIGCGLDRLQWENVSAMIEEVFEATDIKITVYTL

[4] = mouse, microsomes, 1 μM compound, 0.5 mg/ml microsomal protein, read-out: Mouse microsome T1/2
[5] = Caco-2, Caco-2 ratio B-A/A-B, net flux ratio
[6] = Caco-2, compound concentration 5
[7] = liver microsomes, mouse microsome stability, read-out: CLint (mouse) (µl/min/mg protein), mean
[8] = preliminary screen, compound at 200 μM, mean of 3-4 technical replicates, read-out: % competition in HTRF assay
[9] = liver microsomes, mouse microsomes, read-out: CLint (mouse) (µl/min/mg protein), mean
[10] = read-out: Human MacroD2 HTRF assay: IC50
[11] = read-out: Human Targ1 HTRF assay: IC50
[12] = crystal soak 10 mM, P43 crystals

Structure (SMILES) | half-life at 1 µM (Microsomal stability; [4]) | Papp A→B at 1 h (in vitro) | Papp B→A at 1 h (in vitro) | efflux ratio at 1 h (in vitro; [5]) | Recover Rate (%) (Caco-2 cells; [6]) | microsomal CLint at 1 µM (Microsomal stability; [7]) | microsomal CLint at 1 µM (Microsomal stability; mouse, microsomes) | solubility kinetic at […] (Kinetic solubility; phosphate buffered saline) | Hill slope ([1]; HTRF dose-response fit, Mac1) | inhibition at 200 µM [1, 8] | microsomal CLint at 1 µM (Microsomal stability; [9]) | half-life at 1 µM (Microsomal stability; mouse, microsomes) | 1-BDC [2] | Total number of conformations [2] | 2*(1-BDC) (%) [2] | IC50 [3, 10] | binding to the human macrodomain MacroD2 [3] | IC50 (human macrodomain Targ1; [11]) | binding to the human macrodomain Targ1 (human macrodomain Targ1) | efflux ratio at 1 h (in vitro; Caco-2, Ratio (B-A/A-B)) | also measured
O=C(Nc1ccc(C(=O)N[C@H]2c3cccc(O)c3C[C@H]2C(=O)O)cc1)NC1CC1 [AVI-92, reference compound] | > 120 min | 0.04 ×10⁻⁶ cm/s | 1.7 ×10⁻⁶ cm/s | 40.7 | 91% |  |  |  |  |  |  |  |  |  |  |  |  |  |  |  | CLint (mouse) (µl/min/mg protein), mean (Microsomal stability; mouse microsome stability): <11.6 µl/min/mg protein; T1/2 (min), mean (Microsomal stability; mouse microsome stability): >120 min; microsomal CLint at 1 µM (Microsomal stability; mouse microsomes, read-out: CLint (mouse)): < 11.6 µL/min/mg; solubility kinetic at […] (Kinetic solubility): 524 µM (≈ 207 µg/mL); efflux ratio at 1 h (in vitro; Caco-2, Ratio (B-A/A-B), Caco-2, compound concentration 5): 42.5
O=C1CCCN1Nc1ncnc2[nH]c3cc(F)ccc3c12 [AVI-219, reference compound] |  | 10.6 ×10⁻⁶ cm/s | 16.8 ×10⁻⁶ cm/s | 1.6 | 98% | 53.1 µL/min/mg | 53.1 µL/min/mg | 127 µM (≈ 36.2 µg/mL) |  |  |  |  |  |  |  |  |  |  |  |  | half-life at 1 µM (Microsomal stability; liver microsomes, mouse microsome stability, read-out: T1/2 (min), mean): 26.1 min
CC(C)(O)[C@H]1CCCN1c1ncnc2[nH]ccc12 [AVI-607, 2-[(2R)-1-{7H-Pyrrolo[2,3-d]pyrimidin-4-yl}pyrrolidin-2-yl]propan-2-ol] |  | 22 ×10⁻⁶ cm/s | 15.7 ×10⁻⁶ cm/s | 0.7 |  |  | 73 µL/min/mg | 518 µM (≈ 128 µg/mL) | 1.5 | 100% | 73 µL/min/mg | 19 min | 0.44 | 1 | 88% | > 1 mM | none | > 1 mM | none | 0.71 | inhibition at 200 µM ([1]; Single dose, concentration 200 μM, read-out: SARS CoV-2 macrodomain HTRF assay: Average % competition): 100%; SARS CoV-2 macrodomain HTRF assay: Hillslope ([1]; dose-response fit): 1.5; Pandda run, overall: Modeling comment ([2]; crystal soak, soak concentration 10 mM): High occupancy, use manual refinement; Pandda run, overall: Hit ([2]; crystal soak, soak concentration 10 mM, TRUE = ligand hit): TRUE; X-ray crystallography: Binding site ([2]; site where the ligand is bound in the X-ray crystal structure): Adenosine; PanDDA run, DMSO background map: 1-BDC ([2]; soak concentration 10 mM): 0.42 and 0.44; PanDDA run, DMSO background map: Hit ([2]; soak concentration 10 mM): TRUE; Recover Rate (%) (Caco-2 cells; human, Caco-2, 1 h): 93%
CC(c1ccccc1)C(CO)Nc1ncnc2[nH]ccc12 (stereo not drawn) [AVI-3669] |  | 19.4 ×10⁻⁶ cm/s | 14.5 ×10⁻⁶ cm/s | 0.7 |  | 166 µL/min/mg | 166 µL/min/mg | 529 µM (≈ 149 µg/mL) | 1.2 | 98% |  | 8.3 min | 0.14 | 1 | 28% |  | none |  | none | 0.75 | Hill slope ([1]; SARS CoV-2 macrodomain HTRF assay, dose-response): 1.2; inhibition at 200 µM ([1]; Single dose, concentration 200 μM, read-out: Average % competition): 98%; X-ray crystal structure ([2]; X-ray crystal structure determined (TRUE)): TRUE; Pandda run, overall: Hit [2, 12]: TRUE; Pandda run, overall: Modeled [2, 12]: TRUE; PanDDA run, DMSO background map: 1-BDC ([2]; crystal soak 10 mM): 0.14; PanDDA run, DMSO background map: Hit ([2]; crystal soak 10 mM): TRUE; Binding site ([2]; site of ligand in X-ray crystal structure): Adenosine; IC50 ([3]; Human MacroD2 HTRF assay, read-out: IC50): > 1 mM; IC50 (human macrodomain Targ1; Human Targ1 HTRF assay, read-out: IC50): > 1 mM; Recover Rate (%) (Caco-2 cells; human, Caco-2, 1 h): 93%
C[C@H]1CCCN(c2ncnc3[nH]ccc23)[C@H]1CO [AVI-3716] | 31.2 min | 25.9 ×10⁻⁶ cm/s | 18.9 ×10⁻⁶ cm/s |  | 104% |  | 44.4 µL/min/mg | 523 µM (≈ 129 µg/mL) |  |  | 44.4 µL/min/mg |  |  |  |  | > 1 mM | none | > 1 mM | none |  | Mouse microsome stability: T1/2 (min), mean (Microsomal stability; mouse microsomes): 31.2 min
